Measured values published in patent publication US20230391765A1, “HETEROBIFUNCTIONAL COMPOUNDS AS DEGRADERS OF ENL” (ICAHN SCHOOL OF MEDICINE AT MOUNT SINAI, priority 2020, published 2023).

Assays:
Assay type in all cases: cell-based
ENL [1] = target: T1, ENL (Homo sapiens, UniProt Q03111); test: Western blot of ENL protein levels in MV4; 11 cells
T1 construct: Cells were lysed and expression of endogenous ENL was assessed by Western blot analysis; host or cells: MV4;11
T1 sequence (Q03111 1-559): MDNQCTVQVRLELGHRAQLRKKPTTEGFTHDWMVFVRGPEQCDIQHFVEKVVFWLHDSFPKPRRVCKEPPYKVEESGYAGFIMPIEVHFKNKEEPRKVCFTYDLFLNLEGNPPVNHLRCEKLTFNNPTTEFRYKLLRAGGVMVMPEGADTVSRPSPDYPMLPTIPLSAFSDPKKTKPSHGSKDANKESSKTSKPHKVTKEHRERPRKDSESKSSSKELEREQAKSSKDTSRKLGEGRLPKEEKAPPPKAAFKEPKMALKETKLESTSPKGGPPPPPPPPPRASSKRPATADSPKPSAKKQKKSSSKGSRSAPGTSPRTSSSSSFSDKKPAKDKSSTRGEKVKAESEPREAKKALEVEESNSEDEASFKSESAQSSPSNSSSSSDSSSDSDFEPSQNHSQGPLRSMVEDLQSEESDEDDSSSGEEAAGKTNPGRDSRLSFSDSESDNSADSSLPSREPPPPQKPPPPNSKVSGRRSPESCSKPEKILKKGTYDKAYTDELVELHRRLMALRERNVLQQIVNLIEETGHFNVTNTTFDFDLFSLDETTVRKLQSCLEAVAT
Method: MV4; 11 cells were treated with DMSO or the indicated compounds (the same panel of ENL degraders as shown in FIG. 4) at 1 μM and 10 μM for 24 h. Cells were lysed and expression of ENL was assessed by Western blot analysis.
DMSO treated cells were used as control.
MV4; 11 cells were treated with LQ076-122, or LQ081-107 at 0.3, 1, 3, 10, and 30 μM for 24 h. DMSO treated cells were used as control. Cells were lysed and expression of ENL and GAS41 was assessed by Western analysis.
MV4; 11 cells were treated with DMSO or the indicated compounds at 1 μM and 10 μM for 6 h. Cells were lysed and expression of endogenous ENL was assessed by Western blot analysis.
Cells were treated with 1 μM of ENL degrader with or without 1 μM proteasome inhibitor MG132 for 6 h.
(§1) ENL degraders were dissolved in DMSO. DMSO with no degraders was used as the control. 1×10^6 leukemia cells were seeded in 5 mL medium. For prescreening of compounds, each test compound was added to the medium at 1 μM and 10 μM. Cells were collected after 24 h treatment. For the concentration-dependent treatment, candidate compounds were added to the medium at a series of concentration as indicated in figures. Cells were collected after 24 h treatment. For the time-course treatment, candidate compounds were added to the medium at a final concentration of 4 μM (MV4; 11 cells) or 8 μM (MOLM13 cells). Cells were collected at the indicated timepoints (in hours: 12, 16, 20, 24 and 36 h).
(§2) After ENL degrader treatment, cells were collected, lysed, and total cell lysates were used for Western blot. The following primary antibodies were used: ENL (Cell Signaling Technology), GAS41 (Santa Cruz), GAPDH (Santa Cruz), β-actin (Sigma). Blots were detected using HRP-conjugated secondary antibodies.

[2] = system: ENL-dependent MV4; 11 cells; test: Cell viability (CellTiter-Glo), MV4; 11 cells
Method: (§3) MV4; 11 (FIG. 13A), MOLM13 (FIG. 13B) and Jurkat (FIG. 13C) cells were seeded at 2×10^5 cells/mL density and treated with DMSO or indicated compounds 0.5, 1, 2 and 4 μM for 72 h. Cell viability was measured using CellTiter-Glo reagent (Promega) and relative cell viability was calculated by normalization to DMSO samples.
(§4) ENL-dependent MV4; 11 cells were seeded at 2×10^5 cells/mL density and treated with DMSO or the indicated compounds at 0, 1.25, 2.5, 5 and 10 μM for 72 h. Cell viability was measured using CellTiter-Glo reagent (Promega) and relative cell viability was calculated by normalization to DMSO samples.
as §4, with “11 and ENL-independent Jurkat” for “11”, “or” for “or the”, “10 nM, 100 nM, 1 μM” for “0, 1.25, 2.5, 5”, “3 days (A) or 6 days (B).” for “72 h.”
(§5) MV4; 11 or MOLM13 cells were seeded at 0.2×10^6 cells/mL density. Cells were treated with DMSO or ENL degraders at indicated concentrations. Each treatment was done in triplicates. After 72 h treatment, 100 μL of cell suspension from each treatment was mixed with 25 μL of CellTiter-Glo reagent (Promega) and incubated for 10 min before the luminescence signals were detected on a plate reader.

[3] = system: ENL-dependent MOLM13 leukemia cells; test: Cell viability (CellTiter-Glo), MOLM13 cells; conditions: MOLM13 cells, 0.5, 1, 2 and 4 μM for 72 h
Method: as §3, §5

[4] = system: ENL-independent Jurkat cells; test: Cell viability (CellTiter-Glo), Jurkat cells
Method: as §3
as §4, with “11 and ENL-independent Jurkat” for “11”, “or” for “or the”, “10 nM, 100 nM, 1 μM” for “0, 1.25, 2.5, 5”, “3 days (A) or 6 days (B).” for “72 h.”

ENL target genes = test: RT-qPCR of ENL target genes in MOLM13 cells
Method: MOLM13 cells were treated with LQ076-122 (FIG. 14A) and LQ081-108 (FIG. 14B) at 0.5, 1, 2, 4, and 8 μM for 24 h. […] RT-qPCR analysis was performed to detect the mRNA levels of selected ENL target genes.
Total RNA was extracted using the RNeasy Plus kit (Qiagen) and reverse-transcribed using the iScript cDNA Synthesis kit (Bio-Rad). RT-qPCR was performed using the Power SYBR Green PCR Master Mix (Applied Biosystems) on the CFX96 Real-Time PCR system (Bio-Rad). Gene expressions were calculated following normalization to 18s rRNA amounts using the comparative cycle threshold (Ct) method.

ENL [5] = target: T1, ENL; test: Western blot of ENL protein levels in MOLM13 cells
Method: MOLM13 cells were treated with LQ076-122 or LQ081-108 at 0, 0.25, 0.5, 1, 1.5, 2, 2.5, 3, 4 and 8 μM for 24 h.
MOLM13 cells were treated with DMSO or 8 μM of LQ076-122 for 12, 16, 20, 24 and 36 h.
MV4; 11, MOLM13 and Jurkat cells were treated with LQ108-69, LQ108-71, LQ108-72, LQ126-62 and LQ126-63 at 0, 1 nM, 10 nM, 100 nM, 1 μM, and 10 μM doses for 6 h. DMSO was used as negative control.
as §1, §2

ENL [6] = target: T1, ENL; test: Western blot of ENL protein levels in Jurkat cells
From the text: […] DMSO was used as negative control.
as §2

[7] = 11 cells, 0.3, 1, 3 and 10 μM for 12 and 24 h
[8] = 11 cells, 0.5, 1, 2 and 4 μM for 72 h
[9] = Jurkat cells, 0.5, 1, 2 and 4 μM for 72 h

Cc1ncsc1-c1ccc([C@H](C)NC(=O)[C@H]2C[C@H](O)CN2C(=O)[C@@H](NC(=O)CCCCCCCCCCNC(=O)c2ccc(C(=O)Nc3ccc4[nH]c(CN5CCC[C@@H]5C)nc4c3)cc2)C(C)(C)C)cc1 [LQ081-106]
reduction of ENL protein levels (ENL [1]; [7]): did not affect ENL protein levels
suppression of cell growth (relative cell viability) [2, 8]: did not significantly affect cell growth
suppression of cell growth (relative cell viability) [3]: did not significantly affect cell growth
suppression of cell growth (relative cell viability) [4, 9]: did not significantly affect cell growth
ENL target gene expression (mRNA levels) (ENL target genes; MOLM13 cells, 8 μM for 24 h): did not dramatically affect these genes

Cc1ncsc1-c1ccc(CNC(=O)[C@H]2C[C@H](O)CN2C(=O)[C@@H](NC(=O)CCCCCCCCCCNC(=O)c2ccc(C(=O)Nc3ccc4[nH]c(CN5CCC[C@@H]5C)nc4c3)cc2)C(C)(C)C)cc1 [LQ081-107]
reduction of ENL protein levels (ENL [1]; [7]): did not affect ENL protein levels
ENL target gene expression (mRNA levels) (ENL target genes; MOLM13 cells, 8 μM for 24 h): did not dramatically affect these genes

Cc1ncsc1-c1ccc([C@H](C)NC(=O)[C@@H]2C[C@@H](O)CN2C(=O)[C@@H](NC(=O)CCCCCCCCCCNC(=O)c2ccc(C(=O)Nc3ccc4[nH]c(CN5CCC[C@@H]5C)nc4c3)cc2)C(C)(C)C)cc1 [LQ081-108, N^1-(11-(((S)-1-((2S,4R)-4-hydroxy-2-(((S)-1-(4-(4-methylthiazol-5-yl)phenyl)ethyl)carbamoyl)pyrrolidin-1-yl)-3,3-dimethyl-1-oxobutan-2-yl)amino)-11-oxoundecyl)-N^4-(2-(((S)-2-methylpyrrolidin-1-yl)methyl)-1H-benzo[d]imidazol-5-yl)terephthalamide]
reduction of ENL protein levels (ENL [1]; 11 cells, 0-8 μM for 24 h): reduced ENL protein levels in a concentration-dependent manner
reduction of ENL protein levels (ENL [1]; 11 cells, 10 μM, 24 h): effective in reducing ENL protein levels
reduction of ENL protein levels (ENL [1]; [7]): reduced ENL protein levels in a concentration- and time-dependent manner
reduction of ENL protein levels (ENL [5]; 0-8 μM for 24 h): reduced ENL protein levels in a concentration-dependent manner
suppression of cell growth (relative cell viability) [2, 8]: selectively suppressed cell growth
suppression of cell growth (relative cell viability) [3]: selectively suppressed cell growth
ENL target gene expression (mRNA levels) (ENL target genes; MOLM13 cells, 0.5, 1, 2, 4 and 8 μM for 24 h): reduced ENL target gene expression in a concentration-dependent manner

Cc1ncsc1-c1ccc([C@H](C)NC(=O)[C@H]2C[C@H](O)CN2C(=O)[C@@H](NC(=O)CCCCCCCCCCCNC(=O)c2ccc(C(=O)Nc3ccc4[nH]c(CN5CCC[C@@H]5C)nc4c3)cc2)C(C)(C)C)cc1 [LQ081-158]
suppression of cell growth (relative cell viability) [2, 8]: did not significantly affect cell growth
suppression of cell growth (relative cell viability) [3]: did not significantly affect cell growth
suppression of cell growth (relative cell viability) [4, 9]: did not significantly affect cell growth

Cc1ncsc1-c1ccc([C@H](C)NC(=O)[C@@H]2C[C@@H](OCc3ccccc3)CN2C(=O)[C@@H](NC(=O)CCCCCCCCCCNC(=O)c2ccc(C(=O)Nc3ccc4[nH]c(CN5CCC[C@@H]5C)nc4c3)cc2)C(C)(C)C)cc1 [LQ108-141]
suppression of cell growth (relative cell viability) [2, 8]: did not significantly affect cell growth
suppression of cell growth (relative cell viability) [3]: did not significantly affect cell growth
suppression of cell growth (relative cell viability) [4, 9]: did not significantly affect cell growth

Cc1ncsc1-c1ccc([C@H](C)NC(=O)C2C[C@@H](OCc3ccccc3)CN2C(=O)[C@@H](NC(=O)CCCCCCCCCCCNC(=O)c2ccc(C(=O)Nc3ccc4[nH]c(CN5CCC[C@@H]5C)nc4c3)cc2)C(C)(C)C)cc1 (stereo partly drawn) [LQ108-142]
suppression of cell growth (relative cell viability) [2, 8]: did not significantly affect cell growth
suppression of cell growth (relative cell viability) [3]: did not significantly affect cell growth
suppression of cell growth (relative cell viability) [4, 9]: did not significantly affect cell growth

Cc1ncsc1-c1ccc(CNC(=O)[C@@H]2C[C@@H](O)CN2C(=O)[C@@H](NC(=O)CCCCCCCCCCNC(=O)c2ccc3c(c2)[C@H](NC(=O)c2cc(-c4ccc(C(=O)N(C)C)c(O)c4)on2)CC3)C(C)(C)C)cc1 [LQ126-63, 5-(4-(dimethylcarbamoyl)-3-hydroxyphenyl)-N—((R)-6-((11-(((S)-1-((2S,4R)-4-hydroxy-2-((4-(4-methylthiazol-5-yl)benzyl)carbamoyl)pyrrolidin-1-yl)-3,3-dimethyl-1-oxobutan-2-yl)amino)-11-oxoundecyl)carbamoyl)-2,3-dihydro-1H-inden-1-yl)isoxazole-3-carboxamide]
reduction of ENL protein levels (ENL [1]; 11 cells, 1 nM to 10 μM for 6 h): reduced ENL protein levels in a concentration-dependent manner
effect of proteasome inhibitor MG132 on the ENL degradation induced by the degrader (ENL [1]; 11 cells, 1 μM degrader with or without 1 μM MG132 for 6 h): partially blocks the ENL degradation
ENL protein level after long treatment (ENL [1]; 11 cells, 1 μM for 48 and 72 h): maintained the ENL protein at low levels
reduction of ENL protein levels (ENL [5]; 1 nM to 10 μM for 6 h): reduced ENL protein levels in a concentration-dependent manner
ENL protein level after long treatment (ENL [5]; 1 μM for 48 and 72 h): maintained the ENL protein at low levels
reduction of ENL protein levels (ENL [6]; 1 nM to 10 μM for 6 h): reduced ENL protein levels in a concentration-dependent manner
ENL protein level after long treatment (ENL [6]; 1 μM for 48 and 72 h): maintained the ENL protein at low levels
suppression of cell growth (relative cell viability) ([2]; 11 cells, 100 nM dose, 3 days and 6 days): strongly suppressed MV4; 11 cell growth
suppression of cell growth (relative cell viability) ([2]; 11 cells, 1.25, 2.5, 5 and 10 μM for 72 h): significantly suppressed MV4; 11 cell growth at low micromolar concentration
suppression of cell growth (relative cell viability) ([4]; Jurkat cells, 10 nM to 10 μM, 3 days and 6 days): did not affect the growth of ENL-independent Jurkat cells
